Reference: patent publication US20180163179A1, “METHOD FOR IMPROVEMENT OF DRUG METABOLISM OF HUMAN STEM CELL-DERIVED HEPATOCYTES” (KOREA ADVANCED INSTITUTE OF SCIENCE AND TECHNOLOGY, priority 2015, published 2018)

Tests used:
[1] = test system: human embryonic stem cell-derived hepatocytes (hES-Hep); details: hES-Hep treated with alcohol, real-time PCR, FIG. 3
Protocol: Particularly, total RNA was extracted from the adult Hep, Fetal-Hep, and human embryonic stem cell-derived hepatocytes by using Trizol reagent (Invitrogen), followed by cDNA synthesis by using amfi-rivert II cDNA synthesis Master Mix (Gendepot) according to the manufacturer's protocol. Genes in interest were amplified from the transcript by using the primers listed in the Table 1 below by using SYBR green real-time PCR master mix (Toyobo, Japan). The real-time PCR was performed by using Bio-rad CFX96 real-time PCR detection system (Bio-rad). The gene expression level was calculated by ΔΔCt method and by using β-actin as a denominator of the gene expression. Compared with the control gene expression, the obtained value was presented as fold change.

[2] = test system: human embryonic stem cell-derived hepatocytes (hES-Hep); details: hES-Hep treated with alcohol (200 mM ethanol, 24 hours), without co-culture, FIG. 6
Protocol: 2×10^5 mouse hepatic stellate cells were cultured on the plate (Corning, USA) with 8 μm holes coated with human embryonic stem cell-derived hepatocytes cultured in DMEM supplemented with 10% FBS. The cell ratio of mouse hepatic stellate cells to human embryonic stem cell-derived hepatocytes was maintained as 1:2. […] 48 hours later, the cells and the medium were collected (FIG. 4).
Human embryonic stem cell-derived hepatocytes were co-cultured with mouse hepatic stellate cells. Then, TUNEL assay was performed to investigate apoptosis therein.
Apoptosis was investigated by using In Situ Cell Death Detection Kit (Fluorescence, Roche). Nucleus of the cell was stained with DAPI, followed by visualization using Leica DMI 4000B automatic vertical microscope system (Germany) equipped with Leica EL6000 and Leica CTR 4000 CCD camera. Computer assisted images were analyzed with Leica Application Suite Advanced Fluorescence (LAS AF, Leica).

[3] = test system: human embryonic stem cell-derived hepatocytes (hES-Hep); experiment: Immunocytochemistry (immunofluorescence) of CYP2E1 after the treatment of retinoic acid; format: cell-based; details: 1 ump all-trans retinoic acid and 0.2 M EtOH, culture 24 hours, anti-CYP2E1 antibody, FIG. 18
Protocol: Human embryonic stem cell-derived hepatocytes were treated with retinoic acid, followed by immunofluorescence in order to examine the expression of CYP2E1, the alcohol metabolism associated enzyme.
Particularly, the human embryonic stem cell-derived hepatocytes differentiated by the same manner as described in Example 1 were treated with 1 ump all-trans retinoic acid and 0.2 M EtOH, followed by culture for 24 hours. The cells were fixed with 4% paraformaldehyde. […] Blocking was performed by treating the cells with 5% goat serum at 37° C. for 1 hour. The cells were stained with anti-CYP2E1 antibody (Millipore, Germany).

[4] = test system: human embryonic stem cell-derived hepatocytes (hES-Hep); experiment: Gene expression (real time PCR) after the treatment of retinoic acid; format: cell-based; details: 1 ump all-trans retinoic acid or 9-cis-retinoic acid, culture 12~24 hours, FIG. 16
Protocol: Human embryonic stem cell-derived hepatocytes were treated with retinoic acid, followed by investigation of the gene expressions of alcohol metabolism associated enzymes, drug metabolism associated enzymes, and anti-oxidant enzymes.
(§1) Particularly, the human embryonic stem cell-derived hepatocytes differentiated by the same manner as described in Example 1 were treated with 1 ump all-trans retinoic acid or 9-cis-retinoic acid, followed by culture for 12˜24 hours. Then, real time PCR was performed by the same manner as described in Experimental Example <1˜3> in order to examine the expressions of alcohol metabolism associated enzymes (AHD1a, ADH1b, ADH1c, and CYP2E1), drug metabolism associated enzymes (CYP2C9, CYP2D6, and CYP3A4), and anti-oxidant enzymes (catalase and Mn-SOD).

[5] = test system: human embryonic stem cell-derived hepatocytes (hES-Hep); experiment: Gene expression (real time PCR) after the treatment of retinoic acid and ethanol; format: cell-based; details: 1 ump all-trans retinoic acid and 0.2 M EtOH, culture 24 hours, FIG. 17
Protocol: Human embryonic stem cell-derived hepatocytes were treated with retinoic acid and ethanol, followed by investigation of the gene expressions of alcohol metabolism associated enzymes, drug metabolism associated enzymes, and anti-oxidant enzymes.
as §1, with “and 0.2 M EtOH,” for “or 9-cis-retinoic acid,”, “24” for “12˜24”, “<1-3>” for “<1˜3>”, “CYP2E1)” for “CYP2E1), drug metabolism associated enzymes (CYP2C9, CYP2D6, and CYP3A4),”

SMILES	expression of alcohol metabolism associated enzymes [1]	apoptosis (TUNEL) [2]	expression of CYP2E1 (immunofluorescence) [3]	expressions of alcohol metabolism associated enzymes (AHD1a, ADH1b, ADH1c, CYP2E1), drug metabolism associated enzymes (CYP2C9, CYP2D6, CYP3A4) and anti-oxidant enzymes (catalase, Mn-SOD) [4]	expressions of alcohol metabolism associated enzymes (AHD1a, ADH1b, ADH1c, CYP2E1) and anti-oxidant enzymes (catalase, Mn-SOD) [5]
CCO [alcohol, ethanol]	up-regulated	increased			
CC1=C(/C=C/C(C)=C/C=C/C(C)=C/C(=O)O)C(C)(C)CCC1 [retinoic acid]			significantly increased	all increased	all increased
